Measured values: patent publication US10308637B2 (LifeSci Pharmaceuticals, Inc., priority 2015, dated 2019)

Test: Contact Assay (percentage inhibition from fluorescence intensity)
Format: biochemical
Description: The percentage inhibition was calculated using the following equation:
[formula] where, Mean(BG) is the average value of the fluorescence intensity of the background wells and Mean(PC) is the average value of the fluorescence intensity of the positive control wells.
Table 4 provides the EC50 values of various compounds disclosed herein.

SMILES | EC50 [nM]
NC(=O)c1cc(Cc2cc(C(=O)NCc3cnc4[nH]cc(Cl)c4c3)ccn2)cc2cc(Cl)cnc12 [Example 61, 3-chloro-6-((4-(((3-chloro-1H-pyrrolo[2,3-b]pyridin-5-yl)methyl)carbamoyl)pyridin-2-yl)methyl)quinoline-8-carboxamide] | 100 to 1000
O=C(NCc1cnc2[nH]cc(Cl)c2c1)c1ccnc(Cc2ccc3ncc(C(F)(F)F)cc3c2)c1 [Example 231, N-((3-chloro-1H-pyrrolo[2,3-b]pyridin-5-yl)methyl)-2-((3-(trifluoromethyl)quinolin-6-yl)methyl)isonicotinamide] | 100 to 1000
Cc1ccc2ncc(Cc3cc(C(=O)NCc4ccc5c(N)nccc5c4)ccn3)cc2c1 [Example 115, N-((1-aminoisoquinolin-6-yl)methyl)-2-((6-methylquinolin-3-yl)methyl)isonicotinamide] | ≤ 100
Cc1nc(N)ccc1CNC(=O)c1ccnc(Cc2ccc3ncc(CC(F)F)cc3c2)c1 [Example 279, N-((6-amino-2-methylpyridin-3-yl)methyl)-2-((3-(2,2-difluoroethyl)quinolin-6-yl)methyl)isonicotinamide] | 100 to 1000
N#Cc1cc(Cc2cc(C(=O)NCc3ccc4c(N)nccc4c3)ccn2)cc2cc(Cl)cnc12 [Example 57, N-(1-amino-isoquinolin-6-ylmethyl)-2-(3-chloro-8-cyano-quinolin-6-ylmethyl)-isonicotinamide] | 100 to 1000
Cc1cc(N)nc(C)c1CNC(=O)c1ccnc(Cc2ccc3c(cc(Cl)c[n+]3[O-])c2)c1 [Example 99, 6-((4-(((6-amino-2,4-dimethylpyridin-3-yl)methyl)carbamoyl)pyridin-2-yl)methyl)-3-chloroquinoline 1-oxide] | ≤ 100
Cc1cc2c(N)nccc2cc1CNC(=O)c1ccnc(Cc2ccc3ncc(C(F)(F)F)cc3c2)c1 [Example 183, N-((1-amino-7-methylisoquinolin-6-yl)methyl)-2-((3-(trifluoromethyl)quinolin-6-yl)methyl)isonicotinamide] | ≤ 100
Nc1nccc2cc(CNC(=O)c3ccnc(Cc4ccc5ncc(C(F)(F)F)cc5c4)c3)ccc12 [Example 232, N-((1-aminoisoquinolin-6-yl)methyl)-2-((3-(trifluoromethyl)quinolin-6-yl)methyl)isonicotinamide] | ≤ 100
Cc1cc(N)nc(C)c1CNC(=O)c1cc(Cc2ccc3ncc(Cl)cc3c2)nc(C(N)=O)c1 [Example 208, N^4-((6-amino-2,4-dimethylpyridin-3-yl)methyl)-6-((3-chloroquinolin-6-yl)methyl)pyridine-2,4-dicarboxamide] | ≤ 100
Cc1nc(N)ccc1CNC(=O)c1ccnc(Cc2cc(F)c3ncc(Cl)cc3c2)c1 [Example 91, N-(6-amino-2-methyl-pyridin-3-ylmethyl)-2-(3-chloro-8-fluoro-quinolin-6-ylmethyl)-isonicotinamide] | ≤ 100
Cc1nc(N)ccc1CNC(=O)c1ccnc(Cc2ccc3ncc(C(F)(F)F)cc3c2)c1 [Example 229, N-((6-amino-2-methylpyridin-3-yl)methyl)-2-((3-(trifluoromethyl)quinolin-6-yl)methyl)isonicotinamide] | ≤ 100
Cc1cc(N)nc(C)c1CNC(=O)c1cc(CC(N)=O)nc(Cc2ccc3ncc(Cl)cc3c2)c1 [Example 214, N-((6-amino-2,4-dimethylpyridin-3-yl)methyl)-2-(2-amino-2-oxoethyl)-6-((3-chloroquinolin-6-yl)methyl)isonicotinamide] | ≤ 100
Cc1cc(N)nc(C)c1CNC(=O)c1ccnc(Cc2ccc3ncc(C(F)(F)F)cc3c2)c1 [Example 228, N-((6-amino-2,4-dimethylpyridin-3-yl)methyl)-2-((3-(trifluoromethyl)quinolin-6-yl)methyl)isonicotinamide] | ≤ 100
Cc1cc(N)nc(C)c1CNC(=O)c1ccnc(Cc2cc3cc(Cl)cnc3cn2)c1 [Example 148, N-((6-amino-2,4-dimethylpyridin-3-yl)methyl)-2-((3-chloro-1,7-naphthyridin-6-yl)methyl)isonicotinamide] | ≤ 100
Cc1cc(N)nc(C)c1CNC(=O)c1ccnc(Cc2ccc3ncc(Cl)cc3c2)c1 [Example 35, N-((6-amino-2,4-dimethylpyridin-3-yl)methyl)-2-((3-chloroquinolin-6-yl)methyl)isonicotinamide] | ≤ 100

More lines, now with the values ahead:

EC50 [nM] | SMILES
≤ 100 | Cc1cnc2c(S(N)(=O)=O)cc(Cc3cc(C(=O)NCc4cc5c(Cl)c[nH]c5cc4F)ccn3)cc2c1 [Example 287, N-((3-chloro-6-fluoro-1H-indol-5-yl)methyl)-2-((3-methyl-8-sulfamoylquinolin-6-yl)methyl)isonicotinamide]
≤ 100 | Cc1cnc2c(S(C)(=O)=O)cc(Cc3cc(C(=O)NCc4ccc5c(N)nccc5c4)ccn3)cc2c1 [Example 16, N-((1-aminoisoquinolin-6-yl)methyl)-2-((3-methyl-8-(methylsulfonyl)quinolin-6-yl)methyl)isonicotinamide]
100 to 1000 | O=C(NCc1cnc2[nH]cc(Cl)c2c1)c1ccnc(Cc2ccc3ncc(C4CC4)cc3c2)c1 [Example 246, N-((3-chloro-1H-pyrrolo[2,3-b]pyridin-5-yl)methyl)-2-((3-cyclopropylquinolin-6-yl)methyl)isonicotinamide]
≤ 100 | Cc1cc(N)nc(C)c1CNC(=O)c1ccnc(Cc2cnc3ncc(Cl)cc3c2)c1 [Example 204, N-((6-amino-2,4-dimethylpyridin-3-yl)methyl)-2-((6-chloro-1,8-naphthyridin-3-yl)methyl)isonicotinamide]
100 to 1000 | Cc1cnc2c(S(N)(=O)=O)cc(Cc3cc(C(=O)NCc4ccc5[nH]cc(Cl)c5c4F)ccn3)cc2c1 [Example 290, N-((3-chloro-4-fluoro-1H-indol-5-yl)methyl)-2-((3-methyl-8-sulfamoylquinolin-6-yl)methyl)isonicotinamide]
100 to 1000 | Cc1cc(N)nc(C)c1CNC(=O)c1ccnc(Cc2cnc3[nH]c(C(F)(F)F)cc3c2)c1 [Example 152, N-((6-amino-2,4-dimethylpyridin-3-yl)methyl)-2-((2-(trifluoromethyl)-1H-pyrrolo[2,3-b]pyridin-5-yl)methyl)isonicotinamide]
≤ 100 | COC(=O)c1cc(Cc2cc(C(=O)NCc3c(C)cc(N)nc3C)ccn2)cc2cc(Cl)cnc12 [Example 92, methyl 6-((4-(((6-amino-2,4-dimethylpyridin-3-yl)methyl)carbamoyl)pyridin-2-yl)methyl)-3-chloroquinoline-8-carboxylate]
≤ 100 | Cc1cnc2c(S(N)(=O)=O)cc(Cc3cc(C(=O)NCc4cnc5[nH]cc(Cl)c5c4)ccn3)cc2c1 [Example 291, N-((3-chloro-1H-pyrrolo[2,3-b]pyridin-5-yl)methyl)-2-((3-methyl-8-sulfamoylquinolin-6-yl)methyl)isonicotinamide]
100 to 1000 | Cc1cnc2c(S(C)(=O)=O)cc(Cc3cc(C(=O)NCc4cc5cc[nH]c5cc4F)ccn3)cc2c1 [Example 18, N-((6-fluoro-1H-indol-5-yl)methyl)-2-((3-methyl-8-(methylsulfonyl)quinolin-6-yl)methyl)isonicotinamide]
≤ 100 | Cc1nc(N)ccc1CNC(=O)c1ccnc(Cc2cc(C(C)(C)O)c3ncc(Cl)cc3c2)c1 [Example 220, N-((6-amino-2-methylpyridin-3-yl)methyl)-2-((3-chloro-8-(2-hydroxypropan-2-yl)quinolin-6-yl)methyl)isonicotinamide]
